One assay deals with SARS-CoV-2. Put plainly: microbe, parasite or virus in culture. It counts as cell-based. As to conditions: for EC50: Severe acute respiratory syndrome coronavirus 2, Vero C1008, in Primates, read-out: EC50 (effective concentration that gave half-maximal response), inhibition of SARS-CoV-2 infection; for inhibition of SARS-CoV-2 infection: VeroE6 plaque reduction assay, dose-dependent analysis.

The target in the next assay is calmodulin (Homo sapiens, UniProt P0DP23). As to conditions: Winkler 1987; Zimmer and Hofmann 1984; Reiermann and Rüegg 1986; cited from earlier work.

In the case of `CC(C)COCC(CN(Cc1ccccc1)c1ccccc1)N1CCCC1` (centres unmarked) [BPD, Bepridil], in the assay on SARS-CoV-2, the EC50 turned out to be 7.13 µM and the “inhibition of SARS-CoV-2 infection” value is listed as “strong inhibition of SARS-CoV-2 infection in a dose-dependent manner”. Moreover, on calmodulin, the inhibition of calmodulin entry was “inhibit calmodulin”.
On to `CN1CCN(CCCN2c3ccccc3Sc3ccc(C(F)(F)F)cc32)CC1` [TFP, Trifluoperazine], for which, in the assay on SARS-CoV-2, the EC50 came to 7.7 µM and the “inhibition of SARS-CoV-2 infection” value is on record as “potently inhibited SARS-CoV-2 infection in a dose-dependent fashion”.

The record behind these values is patent US20230346793A1, “Compositions and Methods for Treating SARS-CoV-2” (priority 2020, published 2023).
